# Source: patent publication US20200376035A1, “METHODS AND COMPOSITIONS COMPRISING CART AND A SMAC MIMETIC” (THE TRUSTEES OF THE UNIVERSITY OF PENNSYLVANIA, priority 2018, published 2020)
# *1 amine or outer side, *2 acyl side, *3 side chain or, on linkers, in order; H or OH if unused. Where a SMILES comes first, the peptide text is derived from it. Bridges are numbered along the chain shown (N, C = ends). Roman numbers before positions name the chains, in order. [ ]: non-standard residue; d: D form. Hexamethylenediamine = C(CCCN[*:2])CCN[*:1]; Dip = N[C@H](C(=O)O)C(c1ccccc1)c1ccccc1; Chg = N[C@H](C(=O)O)C1CCCCC1; NMeA = CN[C@@H](C)C(=O)O
# Key:
# [1] = system: HER2+ human ovarian cancer cell line (SKOV3); assay: SMAC mimetics with anti-HER2 CAR T (4D5) against SKOV3, luminescence and XCelligence; format: cell-based; settings: SKOV3 + anti-HER2 CAR T (4D5), 50 nM drug vs DMSO
# Protocol: FIGS. 12A-12B illustrate the synergistic killing of solid tumors using CAR cells in combination with SMAC mimetics. […] E:T ratio=0.01:1, [Drug]=50 nM. 24 h co-culture, A human ovarian cell line expressing endogenous HER2 and luciferase reporter (SKOV3 CBG-T2A-GFP) was seeded at density of 10^4 cells/100 μl of media in each well of 96 well plate and grown overnight. Next day, CAR T cells (4D5; Liu et al. Cancer Research 2015; (75)(17):3596-607, incorporated by reference herein in its entirety) were introduced at E:T ratio=0.01:1 50 nM of SMAC mimetics or corresponding amounts of DMSO. After 48 hours, luciferin was added to the cells and luminescence was detected using a luminometer (Biotek Synergy H4). Tumor killing was calculated using the formula: (sample-tumor treated with DMSO)/(lysis control-tumor treated with DMSO). A human ovarian adenocarcinoma cell line (SKOV3) expressing endogenous HER2 was cultured in the presence or absence of human T cells expressing a chimeric antigen receptor against HER2 at a 1:1 CART:Tumor ratio. Cells were treated with 50 nM of birinapant ([…]), BV6, AZD5582 or corresponding amounts of DMSO. Tumor killing was monitored in real-time using the impedance-based […]@ system (ACEA Biosciences, Inc).
# [2] = system: CD19+ Luc+ NALM-6 leukemia cell line; assay: High-throughput screen of small molecule library for CART-enhancing compounds (luminescence, 48 hours); format: cell-based, human; settings: for effect on CART killing activity in the screen: NALM-6 + CART19, 0.3:1 E:T ratio
# Protocol: FIG. 6 illustrates a high-throughput platform to identify CART-enhancing bioactive compounds. The CD19+ Luc+ NALM-6 leukemia cell line was plated at 0.3:1 E:T ratio+/− CART19 using an automated dispenser, Small molecules from a custom-made library (SelleckChem) were then added via an automated workstation and luminescence was detected after 48 hours with a high-throughput plate reader.
# FIG. 7 illustrates that birinapant enhances CART cell cytotoxicity. Screening results: total cytotoxicity (%) of small molecules alone (Y axis) or in combination with CART (X axis). Birinapant is represented by the dot at the “40” mark on the X axis (●).
# An unbiased, reliable, automated, high-throughput system was generated to test thousands of different combinations of CART and small molecules. […] Subsequently, 2,615 different small molecules were added (1 per well). More than half of these drugs are FDA-approved. After 48 hours, tumor luminescence was recorded and percentage tumor killing was calculated. This platform has already generated several significant hits. See FIG. 7, birinapant in grey, represented by the dot at the “40” mark on the X axis (●). Thus, small molecules enhancing CART killing can be identified.
# Birinapant was the only SMAC mimetic in the library.
# [3] = system: human pre-B ALL cell line (NALM6 CBG-T2A-GFP); assay: CART19 (CTL019) killing of NALM6 with birinapant, luciferase readout after 72 hours; format: cell-based; settings: NALM6 + CTL019 at different ratios, different doses of birinapant vs DMSO
# Protocol: FIG. 1A is a graph showing the percentage of tumor killing by CART as a result of increasing concentrations of birinapant or corresponding amounts of DMSO as a control. FIG. 1B is a graph showing the percentage of tumor killing by CART as a function of CART:Tumor ratio. For FIGS. 1A-1B, a human pre-B ALL cell line expressing endogenous CD19 and a luciferase reporter (NALM6 CBG-T2A-GFP) was cultured in the presence or absence of human T cells expressing a chimeric antigen receptor against CD19 (CTL019, KYMRIAH®) at different ratios. Cells were treated with different doses of birinapant (TL32711, Medivir) or corresponding amounts of DMSO. After 72 hours luciferin was added to the cells and luminescence was detected using a luminometer (Biotek Synergy H4). Tumor killing was calculated using the formula: (sample−tumor treated with DMSO)/(lysis control−tumor treated with DMSO). […]
# A human pre-B ALL cell line expressing endogenous CD19 and a luciferase reporter (NALM6 CBG-T2A-GFP) was cultured in the presence or absence of human T cells expressing a chimeric antigen receptor against CD19 (CTL019, KYMRIAH®) at different ratios. […] After 72 hours luciferin was added to the cells and luminescence was detected using a luminometer (Biotek Synergy H4). Tumor killing was calculated using the formula: (sample−tumor treated with DMSO)/(lysis control−tumor treated with DMSO). […]
# [4] = system: human ovarian adenocarcinoma cell line (SKOV3); assay: Anti-HER2 CART (CAR 4D5) killing of SKOV3 with birinapant, impedance-based XCelligence; format: cell-based; settings: SKOV3 + CAR 4D5, 1:1 CART:Tumor ratio, different doses of birinapant vs DMSO, real-time impedance
# Protocol: FIG. 2A is a graph showing the growth and clearance of tumor cells over time. At approximately 21 h (vertical line) tumor cells were treated with only Birinapant (solid lines) or Birinapant and CART cells (dotted lines, 1:1 CART:Tumor ratio). FIG. 2B is analogous to FIG. 2A except for the addition of DMSO instead of Birinapant. FIGS. 2C and 2D summarize the results of FIGS. 2A and 2B, respectively (10 nM Birinapant or DMSO). For FIGS. 2A-2D, a human ovarian adenocarcinoma cell line (SKOV3) expressing endogenous HER2 was cultured in the presence or absence of human T cells expressing a chimeric antigen receptor against HER2 (CAR 4D5) at a 1:1 CART:Tumor ratio, Cells were treated with different doses of birinapant (TL32711, Medivir) or corresponding amounts of DMSO. Tumor killing was monitored in real-time using the impedance-based XCelligence® system (ACEA Biosciences, Inc),
# A human ovarian adenocarcinoma cell line (SKOV3) expressing endogenous HER2 was cultured in the presence or absence of human T cells expressing a chimeric antigen receptor against HER2 (CAR 4D5; Liu et al. Cancer Research 2015; (7517):3596-607, incorporated by reference herein in its entirety) at a 1:1 CART:Tumor ratio. […] Tumor killing was monitored in real-time using the impedance-based XCelligence® system (ACEA Biosciences, Inc).
# [5] = system: human pre-B ALL cell line (NALM6 CBG-T2A-GFP); assay: Birinapant-enhanced CART19 killing of NALM6 with TNF antibodies, 72 hours; format: cell-based; settings: NALM6 + CTL019, 1 μM birinapant with isotype control or TNF antibodies
# Protocol: (§1) A human pre-B ALL cell line expressing endogenous CD19 and a luciferase reporter (NALM6 CBG-T2A-GFP) was cultured in the presence or absence of human T cells expressing a chimeric antigen receptor against CD19 (CTL019, KYMRIAH®). Cells were either treated with 1 μM of birinapant (TL32711, Medivir), corresponding amounts of DMSO or 1 μM birinapant (TL32711, Medivir) in combination with different amounts of isotype control or TNF antibodies. After 72 hours, luciferin was added to the cells and luminescence was detected using a luminometer (Biotek Synergy H4), Tumor killing was calculated using the formula: (sample−tumor treated with DMSO)/(lysis control−tumor treated with DMSO).
# as §1, with “μM” for “μM of”, “and” for “in combination with”, “H4).” for “H4),”
SMILES,CART killing of solid tumor cell lines [1],effect on CART killing activity in the screen [2],further results
"CN[C@@H](C)C(=O)N[C@H](C(=O)N1CCC[C@H]1C(=O)N[C@H]1c2ccccc2C[C@H]1OCC#CC#CCO[C@@H]1Cc2ccccc2[C@@H]1NC(=O)[C@@H]1CCCN1C(=O)[C@@H](NC(=O)[C@H](C)NC)C1CCCCC1)C1CCCCC1 [AZD5582, (2S,2′S)-N,N′-((S,1′S,2R,2′R)-(hexa-2,4-diyne-1,6-diylbis(oxy))bis(2,3-dihydro-1H-indene-2,1-diyl))bis(1-((S)-2-cyclohexyl-2-((S)-2-(methylamino)propanamido)acetyl)pyrrolidine-2-carboxamide)]",enhance CART killing of solid tumor cell lines,,
"CN[C@@H](C)C(=O)N[C@H](C(=O)N1CCC[C@H]1C(=O)N[C@H](C(=O)NCCCCCCNC(=O)[C@@H](NC(=O)[C@@H]1CCCN1C(=O)[C@@H](NC(=O)[C@H](C)NC)C1CCCCC1)C(c1ccccc1)c1ccccc1)C(c1ccccc1)c1ccccc1)C1CCCCC1 [BV6, ((S,S,2S,2′S)-N,N′-((2S,2′S)-(hexane-1,6-diylbis(azanediyl))bis(3-oxo-1,1-diphenylpropane-3,2-diyl))bis(1-((S)-2-cyclohexyl-2-((S)-2-(methylamino)propanamido)acetyl)pyrrolidine-2-carboxamide))] (I: H-[NMeA][Chg]P[Dip] / II: H-[NMeA][Chg]P[Dip]; linker I:C-II:C via Hexamethylenediamine)",enhance CART killing of solid tumor cell lines,,
"CCCCCCCCCCCC1=C(O)C(=O)C=C(O)C1=O [Embelin, 2,5-Dihydroxy-3-undecyl-2,5-cyclohexadiene-1,4-dione]",,Neither Embelin nor GDC-0152 revealed a significant effect on CART killing activity,
"CN[C@@H](C)C(=O)N[C@H](C(=O)N1CCC[C@H]1C(=O)Nc1snnc1-c1ccccc1)C1CCCCC1 [GDC-0152, (S)-1-((S)-2-cyclohexyl-2-((S)-2-(methylamino)propanamido)acetyl)-N-(4-phenyl-1,2,3-thiadiazol-5-yl)pyrrolidine-2-carboxamide]",,Neither Embelin nor GDC-0152 revealed a significant effect on CART killing activity,
"CC[C@H](NC(=O)[C@H](C)NC)C(=O)N1C[C@@H](O)C[C@H]1Cc1c(-c2[nH]c3cc(F)ccc3c2C[C@@H]2C[C@H](O)CN2C(=O)[C@H](CC)NC(=O)[C@H](C)NC)[nH]c2cc(F)ccc12 [birinapant, (2S)-N-[(2S)-1-[(2R,4S)-2-[[6-fluoro-2-[6-fluoro-3-[[(2R,4S)-4-hydroxy-1-[(2S)-2-[[(2S)-2-(methylamino)propanoyl]amino]butanoyl]pyrrolidin-2-yl]methyl]-1H-indol-2-yl]-1H-indol-3-yl]methyl]-4-hydroxypyrrolidin-1-yl]-1-oxobutan-2-yl]-2-(methylamino)propanamide]",enhance CART killing of solid tumor cell lines,,"total cytotoxicity (%) of small molecules in combination with CART (X axis) ([2]; FIG. 7, NALM-6 + CART19, 0.3:1 E:T ratio): 40%; CART killing of leukemic cell lines [3]: enhances CART killing of leukemic cell lines; CART killing of solid tumor cell lines [4]: enhances CART killing of solid tumor cell lines; TNF dependence of enhanced CART killing of tumor [5]: birinapant-enhanced CART killing of tumor is TNF-dependent"
